Measurements as given in patent publication US4001248A, “N-cycloalkylmethyl decahydroisoquinolines” (Eli Lilly and Company, priority 1974, dated 1977).
Where a name gives a salt, the structure may show the parent alone. Read-outs that look alike come from different tables or passages of the source.

Experiments:
[1] = test system: writhing in mice induced by the intraperitoneal injection of acetic acid; experiment: mouse-writhing test (inhibition of writhing induced by intraperitoneal acetic acid); type: in vivo; conditions: for ED50: Mus musculus, read-out: Median inhibiting dose (I.D.50)
Text: In the Table, column 1 gives the name of the compund; column 2, the dosage in mg./kg. of mouse weight; column 3, the route of administration of the drug ("S.C." is subcutaneous and "or" is oral); and column 4, the percent inhibition found at the particular dose level. […] Median inhibiting doses (I.D.50) are also included in the Table.

rat tail jerk = rat tail jerk assay (increase in reaction time over control); type: in vivo
Text: The compounds of this invention are also active in the rat tail jerk assay, another standard pharmacologic test for analgesic activity of the opiate-type. Such activity is manifested as an increase in the reaction time of the animal in removing (jerking) its tail from a nearby heat stimulus (a resistance wire) after drug administration compared to control time (no drug administered). Table 2 which follows gives the increased reaction times over control times produced by the compounds of this invention when administered subcutaneously. In Tables 2 and 3, column 1 gives the name of the compound; column 2, the dose; column 3, time of observation after administration of the drug; column 4, the increase in reaction time above control in seconds; and column 5, the level of significance of the results ("p" value). […] All drugs were administered as aqueous solutions. More than one value for a given dose level indicates multiple determinations. The results are not averaged.

[2] = prior art; cited from earlier work
morphine = experiment: modified rat tail jerk assay, antagonism of morphine; type: in vivo, rats
Experimental: The ability of the compounds of this invention to antagonize the action of morphine, an opiate, is shown by the following modification of the aforementioned rat tail jerk assay: The standard assay procedure is used with the exception that a 7 amps. current is used instead of a 6 amps. current in the hot wire to decrease the measurable agonist effects of the antagonist. The drugs under test are then administered to groups of rats at different dose levels at different times prior to test, with a 5 mg./kg. dose of morphine invariably being administered 10 minutes prior to test. Positive evidence of antagonism is a decreased reaction time over that to be expected from the morphine. […] Among the compounds of this invention, those in which R in Structure I is cyclopropylmethyl are the preferred antagonists, showing activity in the above test procedure. […] In a series of determinations, it was ascertained that the minimum subcutaneous dose necessary to reduce the analgesic effects of a 5 mg./kg. subcutaneous dose of morphine was in the range 2.5-5.0 mg./kg. and the minimum oral dose, 5-10 mg./kg.

[3] = 20 mg./kg. S.C., reading at 0.5 hours
[4] = 20 mg./kg. oral, reading at 0.5 hours
[5] = 100 mg./kg. S.C., reading at 0.5 hours
[6] = 100 mg./kg. oral, reading at 0.5 hours

Compound: COc1cccc([C@]23CCCC[C@@H]2CN(CC2CC2)CC3)c1 (relative stereo) [Trans-dl-1-cyclopropylmethyl-3a-(m-methoxyphenyl)-1,2,3,3a,4,5,6,7,7a,8-decahydroisoquinoline maleate]
- % Inhibition ([1]; 10 mg./kg. S.C., reading at 0.5 hours): 20%
- % Inhibition [1, 3]: 64%
- % Inhibition ([1]; 20 mg./kg. oral, reading at 0.25 hours): 5%
- % Inhibition [1, 4]: 13%
- % Inhibition ([1]; 50 mg./kg. oral, reading at 0.25 hours): 79%
- % Inhibition ([1]; 50 mg./kg. oral, reading at 0.5 hours): 69%
- % Inhibition [1, 5]: 100%
- % Inhibition ([1]; 100 mg./kg. oral, reading at 0.25 hours): 89%
- % Inhibition [1, 6]: 87%
- ED50 ([1]; sc, S.C.): 10 to 20 mg/kg
- ED50 ([1]; oral): 20 to 50 mg/kg
- Increase in Reaction Time Over Control (rat tail jerk; oral, 20 mg./kg., 30 min): 1.10 s
- Increase in Reaction Time Over Control (rat tail jerk; oral, 20 mg./kg., 120 min): .20 s
- Increase in Reaction Time Over Control (rat tail jerk; oral, 80 mg./kg., 30 min): 8.05 s
- Increase in Reaction Time Over Control (rat tail jerk; oral, 80 mg./kg., 120 min): 1.19 s
- Increase in Reaction Time Over Control (rat tail jerk; subcutaneous, 80 mg./kg., 30 min): 1.75 s
- Increase in Reaction Time Over Control (rat tail jerk; subcutaneous, 80 mg./kg., 120 min): 1.05 s

Compound: C=CCN1CC[C@]23c4c5ccc(OC)c4O[C@H]2[C@@H](O)C=C[C@H]3[C@H]1C5 [N-allylnorcodeine]
- opiate antagonist / agonist properties [2]: opiate antagonist

Compound: CC(=O)Oc1ccc2c3c1O[C@H]1[C@@H](OC(C)=O)C=C[C@H]4[C@@H](C2)N(C)CC[C@@]341 [heroin]
- analgesic activity [2]: powerful agonist
- dependance (addiction) liability [2]: extremely high addiction potential

Compound: Oc1cccc([C@]23CCCC[C@@H]2CN(CC2CC2)CC3)c1 (stereo in doubt) [Trans-dl-1-cyclopropylmethyl-3a-(m-hydroxyphenyl)-1,2,3,3a,4,5,6,7,7a,8-decahydroisoquinoline]
- % Inhibition ([1]; 2 mg./kg. S.C., reading at 0.25 hours): 43%
- % Inhibition ([1]; 5 mg./kg. S.C., reading at 0.25 hours): 70%
- ED50 ([1]; sc, S.C., readings of this compound at 0.25 hours): 2 to 5 mg/kg
- antagonism of morphine analgesia (morphine; 50 mg./kg. oral, 30 minutes prior to test, morphine 5 mg./kg. 10 minutes prior to test): reduces the analgesic response to 5 mg./kg. of morphine

Compound: C=CCN1CC[C@]23c4c5ccc(O)c4O[C@H]2[C@@H](O)C=C[C@H]3[C@H]1C5 [nalorphine, N-allylnormorphine]
- opiate antagonist / agonist properties [2]: highly specific ability to reverse the depressant effects of morphine

Compound: COc1ccc2c3c1O[C@H]1[C@@H](O)C=C[C@H]4[C@@H](C2)N(C)CC[C@@]341 [codeine]
- analgesic activity [2]: relatively mild analgesic agonist
- dependance (addiction) liability [2]: slight dependance (addiction) liability

Compound: CC1C2Cc3ccc(O)cc3C1(C)CCN2CCc1ccccc1 (stereo not shown) [phenazocine]
- dependance (addiction) liability [2]: retain a certain degree of opiate dependance liability
- opiate antagonist / agonist properties [2]: both antagonists and agonists

Compound: CC(C)=CCN1CCC2(C)c3cc(O)ccc3CC1C2C (stereo not shown) [pentazocine]
- dependance (addiction) liability [2]: retain a certain degree of opiate dependance liability
- opiate antagonist / agonist properties [2]: both antagonists and agonists

Compound: Oc1cccc([C@]23CCCC[C@@H]2CN(CC2CCC2)CC3)c1 (relative stereo) [Trans-dl-1-cyclobutylmethyl-3a-(m-hydroxyphenyl)-1,2,3,3a,4,5,6,7,7a,8-decahydroisoquinoline maleate]
- % Inhibition ([1]; 1 mg./kg. S.C., reading at 0.5 hours): 46%
- % Inhibition ([1]; 2 mg./kg. S.C., reading at 0.5 hours): 96%
- % Inhibition [1, 3]: 100%
- % Inhibition [1, 4]: 36%
- % Inhibition [1, 5]: 100%
- % Inhibition [1, 6]: 100%
- Increase in Reaction Time Over Control (rat tail jerk; oral, 10 mg./kg., 10 min): .43 s
- Increase in Reaction Time Over Control (rat tail jerk; oral, 10 mg./kg., 30 min): .63 s
- Increase in Reaction Time Over Control (rat tail jerk; oral, 10 mg./kg., 60 min): .21 s
- Increase in Reaction Time Over Control (rat tail jerk; oral, 25 mg./kg., 30 min): 1.71 s
- Increase in Reaction Time Over Control (rat tail jerk; oral, 25 mg./kg., 60 min): 1.04 s
- Increase in Reaction Time Over Control (rat tail jerk; oral, 50 mg./kg., 30 min): 12.42 s
- Increase in Reaction Time Over Control (rat tail jerk; subcutaneous, 0.25 mg./kg., 30 min): .71 s
- Increase in Reaction Time Over Control (rat tail jerk; subcutaneous, 0.5 mg./kg., 30 min): .21 s
- Increase in Reaction Time Over Control (rat tail jerk; subcutaneous, 1 mg./kg., 10 min): .46 s
- Increase in Reaction Time Over Control (rat tail jerk; subcutaneous, 1 mg./kg., 30 min): 1.63 s
- Increase in Reaction Time Over Control (rat tail jerk; subcutaneous, 1 mg./kg., 60 min): .17 s
- Increase in Reaction Time Over Control (rat tail jerk; subcutaneous, 2 mg./kg., 10 min): 2.17 s
- Increase in Reaction Time Over Control (rat tail jerk; subcutaneous, 2 mg./kg., 30 min): 2.50 s
- Increase in Reaction Time Over Control (rat tail jerk; subcutaneous, 2 mg./kg., 60 min): .96 s
- Increase in Reaction Time Over Control (rat tail jerk; subcutaneous, 10 mg./kg., 10 min): 17.88 s
- Increase in Reaction Time Over Control (rat tail jerk; subcutaneous, 10 mg./kg., 30 min): 23.04 s
- Increase in Reaction Time Over Control (rat tail jerk; subcutaneous, 10 mg./kg., 60 min): 22.13 s

Compound: COc1cccc([C@]23CCCC[C@@H]2CN(CC2CC2)CC3)c1 (relative stereo) [Trans-dl-1-cyclopropylmethyl-3a-(m-methoxyphenyl)-1,2,3,3a,4.5,6,7,7a,8-decahydroisoquinoline]
- antagonism of morphine (morphine; dose not stated): found to antagonize morphine
